From article PMC10088252

Compound: O=C(Nc1ccc(Oc2ccnc3c2CCN3)c(F)c1)c1c[nH]cc(-c2ccc(F)cc2)c1=O
- TRAE Urinary retention, any grade (400 mg BID (n=4)): 0 n (%)
- TRAE Urinary retention, grade 3-4 (400 mg BID (n=4)): 0 n (%)
- TRAE Urinary tract infection, any grade (400 mg BID (n=4)): 0 n (%)
- TRAE Urinary tract infection, grade 3-4 (400 mg BID (n=4)): 0 n (%)
- TRAE Ventricular arrhythmia, any grade (400 mg BID (n=4)): 0 n (%)
- TRAE Ventricular arrhythmia, grade 3-4 (400 mg BID (n=4)): 0 n (%)
- TRAE Ventricular extrasystoles, any grade (400 mg BID (n=4)): 0 n (%)
- TRAE Ventricular extrasystoles, grade 3-4 (400 mg BID (n=4)): 0 n (%)
- TRAE Vomiting, any grade (400 mg BID (n=4)): 1 (25.0) n (%)
- TRAE Vomiting, grade 3-4 (400 mg BID (n=4)): 0 n (%)
- TRAE Weight loss, any grade (400 mg BID (n=4)): 0 n (%)
- TRAE Weight loss, grade 3-4 (400 mg BID (n=4)): 0 n (%)
- TRAE Accessory nerve disorder, any grade (450 mg QD (n=12)): 0 n (%)
- TRAE Accessory nerve disorder, grade 3-4 (450 mg QD (n=12)): 0 n (%)
- TRAE Activated partial thromboplastin time prolonged, any grade (450 mg QD (n=12)): 1 (8.3) n (%)
- TRAE Activated partial thromboplastin time prolonged, grade 3-4 (450 mg QD (n=12)): 0 n (%)
- TRAE Anaemia, any grade (450 mg QD (n=12)): 1 (8.3) n (%)
- TRAE Anaemia, grade 3-4 (450 mg QD (n=12)): 1 (8.3) n (%)
- TRAE Anaesthesia oral, any grade (450 mg QD (n=12)): 0 n (%)
- TRAE Anaesthesia oral, grade 3-4 (450 mg QD (n=12)): 0 n (%)
- TRAE Arrhythmia, any grade (450 mg QD (n=12)): 0 n (%)
- TRAE Arrhythmia, grade 3-4 (450 mg QD (n=12)): 0 n (%)
- TRAE Arthralgia, any grade (450 mg QD (n=12)): 1 (8.3) n (%)
- TRAE Arthralgia, grade 3-4 (450 mg QD (n=12)): 0 n (%)
- TRAE Asthenia, any grade (450 mg QD (n=12)): 2 (16.7) n (%)
- TRAE Asthenia, grade 3-4 (450 mg QD (n=12)): 0 n (%)
- TRAE Blister, any grade (450 mg QD (n=12)): 1 (8.3) n (%)
- TRAE Blister, grade 3-4 (450 mg QD (n=12)): 0 n (%)
- TRAE Chest discomfort, any grade (450 mg QD (n=12)): 0 n (%)
- TRAE Chest discomfort, grade 3-4 (450 mg QD (n=12)): 0 n (%)
- TRAE Chronic kidney disease, any grade (450 mg QD (n=12)): 1 (8.3) n (%)
- TRAE Chronic kidney disease, grade 3-4 (450 mg QD (n=12)): 0 n (%)
- TRAE Constipation, any grade (450 mg QD (n=12)): 5 (41.7) n (%)
- TRAE Constipation, grade 3-4 (450 mg QD (n=12)): 0 n (%)
- TRAE Cough, any grade (450 mg QD (n=12)): 0 n (%)
- TRAE Cough, grade 3-4 (450 mg QD (n=12)): 0 n (%)
- TRAE Decreased Ccr, any grade (450 mg QD (n=12)): 2 (16.7) n (%)
- TRAE Decreased Ccr, grade 3-4 (450 mg QD (n=12)): 0 n (%)
- TRAE Decreased appetite, any grade (450 mg QD (n=12)): 2 (16.7) n (%)
- TRAE Decreased appetite, grade 3-4 (450 mg QD (n=12)): 0 n (%)
- TRAE Diarrhoea, any grade (450 mg QD (n=12)): 1 (8.3) n (%)
- TRAE Diarrhoea, grade 3-4 (450 mg QD (n=12)): 0 n (%)
- TRAE Dizziness, any grade (450 mg QD (n=12)): 0 n (%)
- TRAE Dizziness, grade 3-4 (450 mg QD (n=12)): 0 n (%)
- TRAE Dry mouth, any grade (450 mg QD (n=12)): 2 (16.7) n (%)
- TRAE Dry mouth, grade 3-4 (450 mg QD (n=12)): 0 n (%)
- TRAE Dysgeusia, any grade (450 mg QD (n=12)): 3 (25.0) n (%)
- TRAE Dysgeusia, grade 3-4 (450 mg QD (n=12)): 0 n (%)
- TRAE Dyskinesia, any grade (450 mg QD (n=12)): 0 n (%)
- TRAE Dyskinesia, grade 3-4 (450 mg QD (n=12)): 0 n (%)
- TRAE Dysphonia, any grade (450 mg QD (n=12)): 0 n (%)
- TRAE Dysphonia, grade 3-4 (450 mg QD (n=12)): 0 n (%)
- TRAE Dyspnoea, any grade (450 mg QD (n=12)): 0 n (%)
- TRAE Dyspnoea, grade 3-4 (450 mg QD (n=12)): 0 n (%)
- TRAE Electrocardiogram QT prolonged, any grade (450 mg QD (n=12)): 0 n (%)
- TRAE Electrocardiogram QT prolonged, grade 3-4 (450 mg QD (n=12)): 0 n (%)
- TRAE Elevated ALT, any grade (450 mg QD (n=12)): 5 (41.7) n (%)
- TRAE Elevated ALT, grade 3-4 (450 mg QD (n=12)): 0 n (%)
- TRAE Elevated AST, any grade (450 mg QD (n=12)): 5 (41.7) n (%)
- TRAE Elevated AST, grade 3-4 (450 mg QD (n=12)): 0 n (%)
- TRAE Elevated D dimer, any grade (450 mg QD (n=12)): 0 n (%)
- TRAE Elevated D dimer, grade 3-4 (450 mg QD (n=12)): 0 n (%)
- TRAE Elevated GGT, any grade (450 mg QD (n=12)): 0 n (%)
- TRAE Elevated GGT, grade 3-4 (450 mg QD (n=12)): 0 n (%)
- TRAE Elevated LDH, any grade (450 mg QD (n=12)): 0 n (%)
- TRAE Elevated LDH, grade 3-4 (450 mg QD (n=12)): 0 n (%)
- TRAE Elevated alpha-HBDH, any grade (450 mg QD (n=12)): 0 n (%)
- TRAE Elevated alpha-HBDH, grade 3-4 (450 mg QD (n=12)): 0 n (%)
- TRAE Elevated bilirubin, any grade (450 mg QD (n=12)): 0 n (%)
- TRAE Elevated bilirubin, grade 3-4 (450 mg QD (n=12)): 0 n (%)
- TRAE Elevated blood creatinine, any grade (450 mg QD (n=12)): 2 (16.7) n (%)
- TRAE Elevated blood creatinine, grade 3-4 (450 mg QD (n=12)): 0 n (%)
- TRAE Elevated creatine phosphokinase, any grade (450 mg QD (n=12)): 1 (8.3) n (%)
- TRAE Elevated creatine phosphokinase, grade 3-4 (450 mg QD (n=12)): 0 n (%)
- TRAE Elevated serum urea, any grade (450 mg QD (n=12)): 0 n (%)
- TRAE Elevated serum urea, grade 3-4 (450 mg QD (n=12)): 0 n (%)
- TRAE Elevated troponin, any grade (450 mg QD (n=12)): 1 (8.3) n (%)
- TRAE Elevated troponin, grade 3-4 (450 mg QD (n=12)): 0 n (%)
- TRAE Genital rash, any grade (450 mg QD (n=12)): 0 n (%)
- TRAE Genital rash, grade 3-4 (450 mg QD (n=12)): 0 n (%)
- TRAE Haematuria, any grade (450 mg QD (n=12)): 3 (25.0) n (%)
- TRAE Haematuria, grade 3-4 (450 mg QD (n=12)): 0 n (%)
- TRAE Headache, any grade (450 mg QD (n=12)): 0 n (%)
- TRAE Headache, grade 3-4 (450 mg QD (n=12)): 0 n (%)
- TRAE Hyperhidrosis, any grade (450 mg QD (n=12)): 1 (8.3) n (%)
